Reference: patent US6133273A, “Pyrazolopyrimidine-2,4-dione sulfonamides” (American Home Products Corporation, priority 1999, dated 2000)

Tests used:
[1] = test system: promoter region of the human calcitonin gene (luciferase reporter, C1-3 cells); settings: c1-3 tt cells, 12 h, 30 µM
Description: (§1) This assay was used to determine the ability of a compound to stimulate transcription of a luciferase reporter gene regulated by 3 kb of the promoter region of the human calcitonin gene.
(§2) C1-3 cells were plated at a density of 6,500-7,500 cells per well in a 96-plate microtiter plate. Twenty-four to forty-eight hours later, compounds were added to the wells in triplicate. Compounds were tested at a concentration of 10 μg/mL in 0.5% DMSO.
(§3) The production of light is measured on a luminometer.
(§4) TAR Ratio: Stimulation of calcitonin promoter-dependent transcription is expressed as a ratio of luciferase activity (LUCI) in the presence of test compound compared to the LUCI activity in the untreated control: [formula]

[2] = test system: PDE-IV; test: Inhibition of Phosphodiesterase IV (PDE-IV) isolated from human U937 cells; format: biochemical; settings: U937 cell PDE-IV, 1 μM [3H]-cAMP, 37° C., test compound 0.001 μM to 10 μM
Description: This assay was used to biochemically assess the ability of a test compound to inhibit PDE-IV isolated from a U937 cell line, where PDE-IV refers to the cGMP-insensitive, cAMP-selective PDE.
Cell Culture: U937 cells were grown in RPMI 1640 medium supplemented with 10% heat-inactivated fetal calf serum and Penicillin/Streptomycin (100 units/100 μg per mL) in a humidified 5% CO2 atmosphere at 37° C. Starter cells were maintained in continuous logarithmic growth by seeding them in 75 cm^2 vented tissue culture flasks at a concentration of 3×10^4 cells/mL and passing them every 3-4 days when the cells reached approximately 8×10^5 cells/mL. For experiments, 3-4 day starter cells were seeded in 225 cm^2 flasks at 1×10^5 cells/mL and harvested 3-4 days later at approx. 6×10^5 cells/mL.
Isolation of PDE-IV: U937 cells were activated with 10 μM dibutyryl cAMP for a period of 4 hours (to up-regulate PDE-IV) and then harvested by centrifugation at 1200×g for 10 min in 250 mL conical centrifuge tubes. The pellet from each 200 mL flask was resuspended in 5 mL buffer A [10 mM Tris-HCl, 5 mM MgCl2, 4 mM EGTA, 5 mM 2-mercaptoethanol, 1 μM leupeptin, 1 μM pepstatin A, and 5 μM phenylmethyl sulfonyl fluoride (PMSF) (pH 7.8)], and the cells were lysed using 3 cycles of freezing (3 min in dry ice/acetone) followed by thawing (warm water). […] To determine which families of PDEs were present, fractions may be assayed for hydrolytic activity with 1 μM [^3 H]-cAMP or 1 μM [^3 H]-cGMP. Additionally, 1 μM [^3 H]-cAMP assays were conducted in the presence of 10 μM rolipram, 10 μM cGMP, or calmodulin (1 unit/0.4 mL plus 10 μM CaCl2).
When prepared in this manner, approximately 80% of total cAMP PDE activity is eluted by Buffer B containing 0.7 M sodium acetate. This PDE activity consists of>90% PDE-IV (as evidenced by its susceptibility to inhibition by rolipram.
PDE assay: PDE activity was measured using a modification of the radioisotope procedure previously described by Thompson et al. (Thompson, W. J., Terasaki, W. L., Epstein, P. M. and Strada, S. J. Adv, Cyclic Nucleotide Res. 1979, 10, 69). Reaction mixtures (0.4 mL) contain 40 mM Tris-HCl (pH 7.8), 4 mM 2-mercaptoethanol, 5 mM MgCl2, 0.1 μM leupeptin, 0.1 μM pepstatin A, 0.1 μM PMSF, 1 μM [3H]-cAMP or 1 μM [^3 H]-cGMP (~200,000 DPM), and enzyme to initiate the reaction. ^3 H-cAMP substrate was prepared as follows: A stock solution of ^3 H-cyclic nucleotide (1000 μCi/mL) was diluted 1:10 in 50% EtOH. 200 μl of this diluted stock solution was added to a cold (unlabeled) cyclic nucleotide solution, made at a concentration of 4 μM. 100 μl of this solution was used per assay tube to achieve a final concentration of 1 μM cyclic nucleotide per assay tube (200,000 DPM). Enzyme activity was determined at 37° C. Reactions were terminated by boiling, incubating with snake venom, and cooling as previously described (Thompson et al., 1979). The reaction mixture was applied to a (0.8×8.5 cm) column containing 0.4 g Dowex I-X8 affinity resin; reaction tubes were rinsed with 0.5 mL of methanol; and this, along with an extra 1 mL of methanol, was applied to the column to elute the ^3 H-reaction products. After all liquid has passed through the column, the column was plunged with a 12 cc syringe plunger. Each column's eluate was collected in a 20 mL scintillation vial containing 10 mL aquasol-2 and counted by scintillation spectrophotometry. [^3 H]-adenosine or [^3 H]-guanosine recovery was corrected for background DPM determined in the absence of enzyme. The amount of enzyme and duration of assay were adjusted to ensure that less than 25% of the substrate was consumed under these conditions.
Measurements: Inhibition by a test compound was measured as a percent reduction of total PDE activity, and calculated as follows: [formula] where A is the PDE activity (mean DPM-background DPM) in the presence of test compound, and B is the total PDE-IV activity (mean DPM-background DPM) in the absence of test compound. […]

[3] = test system: C1-3 cell line (calcitonin secretion); test: Calcitonin Secretion/RIA Assay; format: cell-based, human; settings: active if >2.5; for Secretion Ratio: 30 μM, ratio of calcitonin secretion vs untreated control; for fold induction at 30 µM: Homo sapiens, C13, ratio of calcitonin secretion vs untreated control
Description: Cell Line: C1-3 (Parent Cell Line: TT-medullary thyroid carcinoma),
Reagent A--(Anti-Calcitonin)
Regent C--(Anti-Goat Precipitant)
Regent D--(Zero Standard).
Reagents E-I--(Calcitonin Standards)
Reagents J-K (Calcitonin Controls: Level and Level 2)
1. Glass tubes were labeled to include Total Count (TC), Nonspecific Binding (NSB), Maximum Binding (Bo), Standards, Controls and Patient Sera in duplicate.
2. […] of Standard Zero (Reagent D) was added to tubes 3 through 6 (NSB and Bo).
3. […] of Standards* (Reagents E-1) was added to tubes 7-16 as follows:
4. […] of Patient Serum 1 was added to tubes 21 and 22, Patient Serum 2 was added to tubes 23 and 24, etc.
5. […] of Reagent L (NSB Buffer) was added to tubes 3 and 4.
6. […] of Reagent A (Anti-Calcitonin) was added to all tubes except tubes 1 & 2 (TC) and tube 3 & 4 (NSB). All tubes were vortexed, covered with parafilm or foil and incubated 44±6 hours at 2-8° C.
7. […] All tubes were vortexed, covered with parafilm or foil and incubated 22±3 hours at 2-8° C.
8. Reagent C (Anti-Goat Precipitant) was mixed gently but thoroughly by inverting the vial several times before use. 1 mL Reagent C was added to all tubes except 1 and 2 (TC). Tubes were vortexed and incubated 20 minutes at room temperature.
9. All tubes were centrifuged at 1300-1500×g for 15 minutes at 2-8° C.
10. Supernatant was decanted immediately after centrifugation taking care to leave the precipitate intact.
11. Tubes were counted 4 minutes or longer.
Secretion Ratio: Stimulation of calcitonin secretion is expressed as a ratio of secretion activity in the presence of test compound compared to the secretion activity in the untreated control: [formula]

[4] = test system: promoter region of the human calcitonin gene (luciferase reporter, C1-3 cells); test: Calcitonin/Luciferase Reporter Gene Expression Assay; settings: Homo sapiens, C13, 12 h, read-out: TAR (transcription activation ratio)
Description: as §1, §2, §3, §4

[5] = Serum Calcium/Plasma Calcitonin Determination Assay (acute/subacute, rats); format: in vivo, Sprague Dawley rats; settings: subacute, sc, n=8, 30 mg/kg/2x/day; for % Decrease Serum Calcium: Examples 4 and 7 marked * (p<0.05 vs. vehicle); for % Increase Plasma Calcitonin: Examples 5 and 7 marked * (p<0.05 vs. vehicle)
Description: This assay was used to evaluate the ability of a test compound to decrease serum calcium and increase plasma calcitonin in rats using either an acute or sub-acute protocol. […]
Subacute Administration Study: After 72 hours acclimatization, young male or female Sprague Dawley rats weighing 170-250 g were randomly divided in groups of 8. The rats were fasted and given deionized H2 O 18 hours prior to the start of the study. The purpose of the fasting is to reduce the variability in serum calcium and plasma calcitonin levels. Each rat was weighed.
C-G Test Compounds 30 mg/kg/2x/day ip or sc
^b In vehicle and test compound groups, the treatments that the
Measurements: Body weight, serum calcium levels and plasma calcitonin levels.
Data Evaluations: The difference in serum calcium and plasma calcitonin between a treatment group and the vehicle group was determined using a one-way analysis of variance with Dunnett's test, or other multiple comparison methods. Compounds were designated active if .rho.<0.05 vs. vehicle value.

Row | TAR (transcription activation ratio) [1] | Secretion Ratio [3] | Compound | % Inhibition of PDE IV (normalized to rolipram) [2] [%] | fold induction at 30 µM [3] | fold induction at 30 µM [4] | % Decrease Serum Calcium [5] [%] | % Increase Plasma Calcitonin [5] [%]
1 | 2.14 | 3.23 | 4,6-Dibutyl-1-(3,5-dimethyl-isoxazole-4-sulfonyl)-1,4-dihydro-pyrazolo[4,3- d]pyrimidine-5,7-dione [Example 8] | 26 | – | – | – | –
2 | 1.43 | 2.90 | 4,6-Dibutyl-1-ethanesulfonyl-1,4-dihydro-pyrazolo[4,3-d]pyrimidine-5,7-dion [Example 10] | 45 | – | – | – | –
3 | – | – | CCCCn1c(=O)c2nn(S(=O)(=O)c3ccc4ccccc4c3)cc2n(CCCC)c1=O [Example 4, 4,6-Dibutyl-2-(2-naphthalenesulfonyl)-2,4-dihydro-pyrazolo[4,3-d]pyrimidine-5,7-dione] | 33 | 4.91 | 1.75 | 5 | 8
4 | – | – | CCCCn1c(=O)c2nn(S(=O)(=O)c3ccc(C(C)(C)C)cc3)cc2n(CCCC)c1=O [Example 5, 4,6-Dibutyl-2-(4-tert-butyl-benzenesulfonyl)-2,4-dihydro-pyrazolo[4,3-d]pyrimidine-5,7-dione] | 63 | 4.5 | 2.27 | 1 | 101
5 | – | – | CCCCn1c(=O)c2nn(S(=O)(=O)c3cc(Cl)c(Cl)s3)cc2n(CCCC)c1=O [Example 6, 4,6-Dibutyl-2-(4,5-dichloro-thiophene-2-sulfonyl)-2,4-dihydro-pyrazolo[4,3-d]pyrimidine-5,7-dione] | 100 | 3.4 | 1.69 | 0 | 12
6 | – | – | CCCCn1c(=O)c2cn(S(=O)(=O)c3c(C)nn(C)c3Cl)nc2n(CCCC)c1=O [Example 7] | – | 2.92 | 2.13 | 4 | 80
